Tests used:
Assay type in all cases: cell-based
[1] = tested on: Bacillus stearothermophilus var. calidolactis spores C953; assay: Test type C: microtiterplates with agar medium containing trimethoprim, milk sample
Protocol: For the preparation of the test plates (test type C) the procedure described in Example I was followed except that the nutrients described in Example III (dextrose, tryptose and yeast extract) were not added separately but were added to the initial agar medium in the same concentration as described in Example I. Also together with the buffer solution an amount of trimethoprim solution was added to give a final concentration of 60 μg per litre. To the wells of sterile microtiterplates 20 μl of the agar solution was added under asceptic conditions. The plates were immediately sealed with aluminium foil. The plates were stored at a temperature between 5° C. and 15° C. An amount of penicillin G of 3 ppb was added to fresh cow's milk. […] The control sample contained no penicillin G or sulphadiazine. The microtiterplates were opened by removing the seal. Then 20 μl of each of the three milk samples was added to each of the test plates (duplo) containing different concentrations of Bacillus stearothermophilus var. calidolactis spores […]. The plates were immediately placed in a waterbath kept at 64° C. Observations were made after 30 minutes to 150 minutes. The time at which the colour of the agar medium became yellow was determined. As is shown in table 2, the test duration correlated with the amount of spores added to the agar medium without influencing the sensitivity of the test in a negative way.

[2] = tested on: Bacillus stearothermophilus var. calidolactis C953 spores; assay: Test type A: agar test tubes with bromocresolpurple and nutrient tablet, milk sample; details: fresh cow's milk, 64° C.
Protocol: Test tubes of type A contained an agar medium prepared as follows: A solution was made of 12 g agar, 9 g sodium chloride and 50 ml of a 0.1 M triethanolamine buffer solution (pH=8.0) in 1000 ml distilled water. An amount of a solution of bromocresolpurple to give a final concentration of 20 mg per 1000 ml was also added. The final solution was sterilized for 20 minutes at 121° C. and cooled to about 60° C. To this solution different amounts of a suspension of Bacillus stearothermophilus var. calidolactis […] spores in distilled water were added to give final concentrations between 10^5 and 10^10 spores per ml. Sterile tubes with a diameter of about 9 mm were filled with 0.3 ml of the agar solution under aseptic conditions and immediately sealed, e.g. with aluminium foil. The agar solution in the test tubes was allowed to solidify in the test tubes while the test tubes were held in an upright position. The tubes were stored at a temperature between 5° C. and 15° C. A mixture was made of 100 g dextrose, 160 g Avicel PH101, 50 g tryptose, 14 g yeast extract and 15 g precirol. This mixture was sufficient to prepare about 18000 tablets with a diameter of approximately 3 mm and a thickness of approximately 1.9 mm. […] The time at which the colour of the agar medium became yellow was determined. […]

[3] = tested on: Bacillus stearothermophilus var. calidolactis C953 spores; assay: Test type B: agar test tubes with Brilliant Black and Toluidine Blue, milk sample
Protocol: Test tubes of type B contained an agar medium prepared as follows: A solution was made of 10 g agar, 9 g sodium chloride, 2 g glucose, 2 g peptone, 2 g tryptone, 4 g yeast extract and 50 ml of a 0.1 M triethanolamine buffer solution (pH=8.0) in 1000 ml distilled water. The final solution was sterilized for 20 minutes at 121° C. and cooled to about 60° C. An amount of a solution of Brilliant Black to give a final concentration of 80 mg per 1000 ml and an amount of a solution of Toluidine Blue to give a final concentration of 3 mg per 1000 ml were also added. To this solution different amounts of a suspension of Bacillus stearothermophilus var. caildolactis C953 spores In distilled water were added to give final concentrations between 10^8 and 10^10 spores per ml. Sterile tubes with a diameter of about 9 mm were filled with 0.3 ml of the agar solution under aseptic conditions and Immediately sealed e.g. with an aluminum foil. The agar solution In the test tubes was allowed to solidity in the test tubes while the test tubes were held in an upright position. The tubes were stored at a temperature between 5° C. and 15° C. An amount of penicillin G of 0.003 I.U. per ml was added to fresh cow's milk. The control sample contained no penicillin G. Two of each of the test tubes of type B with concentrations of Bacillus stearothermophilus var. calidolactis spores as described in Example II were opened by removing the seal. Then 0.1 ml of each of the two milk samples was added to each of the test tubes and the test tubes were immediately placed in a waterbath kept at 64° C. Observations were made after 30 minutes to 3 hours. The time at which the colour of the agar medium became yellow was determined. As is shown in Table 1, the test duration correlated with the amount of spores added to the agar medium without influencing the sensitivity of the test in a negative way.

[4] = tested on: Streptococcus thermophilus T101 (DSM 4022); assay: Test type D: detection of antibiotics in milk without agar, bromocresolpurple; details: test duration of 80 minutes
Protocol: In this experiment Streptococcus thermophilus […] (DSM 4022) was sed for the determination of antibiotics in milk. Streptococcus thermophilus […] was grown using methods known per se. An amount of a solution of bromocresolpurple to give a final concentration of […] was added to fresh cow's milk. To part of the fresh cow's milk also an amount of penicillin G of 4 ppb added. The control sample contained no penicillin G. To the milk samples different amounts of Streptococcus thermophilus […] were added to give final concentrations between 10^7 and 10^9 CFU per ml. Immediately after preparation of the samples sterile tubes with a diameter of about 9 mm were filled with 0.3 ml of each milk sample (duplo). The tubes were immediately placed in a waterbath kept at 42° C. Observations were made after 30 minutes to 2 hours and 30 minutes. The time at which the colour of the agar medium became yellow was determined. As is shown in table 3, the test duration correlated with the amount of cells added to the milk without influencing the sensitivity of the test in a negative way.

Row | Structure (SMILES) | concentration that can be detected ([1]; test duration of 90 minutes) | detectable amount of antibacterial compound (agar medium blue) [2] | concentration detected in a milk sample ([3]; as little as 70 minutes, test organism more than 10^7 CFU per ml) | concentration that can be detected ([3]; test type B, test duration of 70 minutes, milk) | concentration detected in a milk sample ([3]; test unit of 0.3 ml agar solution in upright test tube of internal diameter 9 mm) | concentration that can be detected ([1]; test duration of 80 minutes) | concentration that can be detected [4]
1 | Nc1ccc(S(=O)(=O)Nc2ncccn2)cc1 [sulphadiazine] | 100 ppb |  |  |  |  |  | 
2 | CC1(C)S[C@@H]2[C@H](NC(=O)Cc3ccccc3)C(=O)N2[C@H]1C(=O)O [penicillin G] | 3 ppb | ≥ 0.003 I.U. per ml | 0.003 IU/ml | 0.003 I.U. per ml | 0.003 lU/ml | 3 ppb | ≥ 4 ppb

Source: patent US6867015B1, “Rapid microbiological test for the detection of antibacterial compounds” (Gist-Brocades B.V., priority 1995, dated 2005)
